From patent US20130096119A1, “Isoquinolin-3-Ylurea Derivatives” (priority 2010, published 2013) come the findings set out here.

The test deals with S. pneumoniae ATCC 49619. Description: Minimal inhibitory concentration (MIC) by microdilution method (CLSI M7-A7). Format: cell-based, Streptococcus pneumoniae. The following applies: for MIC: Streptococcus pneumoniae, ATCC49619, cation-adjusted Mueller-Hinton Broth supplemented with 3% (v/v) lysed horse blood. As to the method:
Minimal inhibitory concentrations (MICs; mg/l) were determined in cation-adjusted Mueller-Hinton Broth (supplemented with 3% (v/v) lysed horse blood for testing Streptococcus pneumoniae) by a microdilution method following the description given in “Methods for Dilution Antimicrobial Susceptibility Tests for Bacteria that Grow Aerobically”, Approved standard, 7th ed., Clinical and Laboratory Standards Institute (CLSI) Document M7-A7, Wayne, Pa., USA, 2006.
In general terms: Broth dilution looks for growth in wells or tubes with falling amounts of substance.

≈ marks a conversion by molar mass, not a printed value.

As a reminder, the MIC is the lowest concentration found to suppress growth. Higher therefore signals a need for much substance. Take `CCNC(=O)Nc1cc2cc(-c3cccc(OC)c3)cc(C)c2cn1` [Example 76, 1-ethyl-3-[6-(3-methoxy-phenyl)-8-methyl-isoquinolin-3-yl]-urea]: the MIC was 1 µg/mL (≈ 2.98 µM).

As to `CCNC(=O)Nc1cc2c(-c3cscn3)ccc(Nc3cccc(OC)n3)c2cn1` [Example 290, 1-ethyl-3-[8-(6-methoxy-pyridin-2-ylamino)-5-thiazol-4-yl-isoquinolin-3-yl]-urea], inhibition of growth (MIC) required 0.5 µg/mL (≈ 1.19 µM). The same measure, in the same setting: as for `CCNC(=O)Nc1cc2cccc(CNc3ccccn3)c2cn1.Cl` [Example 263, 1-ethyl-3-[8-(pyridin-2-ylaminomethyl)-isoquinolin-3-yl]-urea hydrochloride], the figure is 4 µg/mL; as for `CCNC(=O)Nc1cc2cccc(Nc3ccc(C(=O)OC)c(C)c3)c2cn1` [Example 266, 4-[3-(3-ethyl-ureido)-isoquinolin-8-ylamino]-2-methyl-benzoic acid methyl ester], 4 µg/mL (≈ 10.6 µM); as for `CCNC(=O)Nc1cc2cc(-c3ccncc3F)cc(C)c2cn1` [Example 97, 1-ethyl-3-[6-(3-fluoro-pyridin-4-yl)-8-methyl-isoquinolin-3-yl]-urea], 2 µg/mL (≈ 6.17 µM). Still for that read-out and setting: as for `CCNC(=O)Nc1cc2cccc(Nc3ccc(CC(N)=O)cc3)c2cn1.Cl` [Example 253, 2-{4-[3-(3-ethyl-ureido)-isoquinolin-8-ylamino]-phenyl}-acetamide hydrochloride], the figure is 4 µg/mL. The same measure, in the same setting: as for `CCNC(=O)Nc1cc2cccc(Nc3cccnc3OC)c2cn1.Cl` [Example 291, 1-ethyl-3-[8-(2-methoxy-pyridin-3-ylamino)-isoquinolin-3-yl]-urea hydrochloride], the figure is 4 µg/mL; as for `CCNC(=O)Nc1cc2cc(-c3ccc(CC#N)cc3)cc(C)c2cn1` [Example 92, 1-[6-(4-(cyanomethyl)-phenyl)-8-methyl-isoquinolin-3-yl]-3-ethyl-urea], 0.25 µg/mL (≈ 0.726 µM); as for `CCNC(=O)Nc1cc2c(F)c(-c3cccnc3)cc(-c3ccc(C(=O)O)cc3)c2cn1` [Example 33, 4-[3-(3-ethyl-ureido)-5-fluoro-6-pyridin-3-yl-isoquinolin-8-yl]-benzoic acid], 1 µg/mL (≈ 2.32 µM). In turn, `CCNC(=O)Nc1cc2c(F)c(-c3cccc(NC(C)=O)c3)cc(-c3cccnc3)c2cn1` [Example 113, N-{3-[3-(3-ethyl-ureido)-5-fluoro-8-pyridin-3-yl-isoquinolin-6-yl]-phenyl}-acetamide] registered an MIC of 1 µg/mL (≈ 2.25 µM). Still for that read-out and setting: as for `CCNC(=O)Nc1cc2c(-c3ccc(CO)cc3)ccc(Nc3cccc(C(=O)N(C)C)c3)c2cn1` [Example 251, 3-[3-(3-ethyl-ureido)-5-(4-hydroxymethyl-phenyl)-isoquinolin-8-ylamino]-N,N-dimethyl-benzamide], the figure is 1 µg/mL (≈ 2.07 µM).

`CCNC(=O)Nc1cc2cc(-c3ccc(C(C)=O)cc3)cc(C)c2cn1` [Example 108, 1-[6-(4-acetyl-phenyl)-8-methyl-isoquinolin-3-yl]-3-ethyl-urea] yielded an MIC of 0.5 µg/mL (≈ 1.44 µM). The molecule `CCNC(=O)Nc1cc2c(Nc3cccnc3)ccc(Nc3cccnc3)c2cn1` [Example 268, 1-[5,8-bis-(pyridin-3-ylamino)-isoquinolin-3-yl]-3-ethyl-urea] came in with an MIC of 4 µg/mL (≈ 10 µM). As for `CCNC(=O)Nc1cc2cccc(CNc3cc(C)nn3C)c2cn1` [Example 191, 1-{8-[(2,5-dimethyl-2H-pyrazol-3-ylamino)-methyl]-isoquinolin-3-yl}-3-ethyl-urea], inhibition of growth (MIC) required 8 µg/mL (≈ 23.6 µM). As for `CCNC(=O)Nc1cc2cc(NCC(C)C)cc(C)c2cn1.Cl` [Example 136, 1-ethyl-3-(6-isobutylamino-8-methyl-isoquinolin-3-yl)-urea hydrochloride], inhibition of growth (MIC) required 16 µg/mL.

As to `CCNC(=O)Nc1cc2cccc(Cn3ccnn3)c2cn1` [Example 298, 1-ethyl-3-(8-[1,2,3]triazol-1-ylmethyl-isoquinolin-3-yl)-urea], the MIC stood at 4 µg/mL (≈ 13.5 µM).

Molecule `CCNC(=O)Nc1cc2cc(-c3cccnc3F)cc(C)c2cn1` [Example 100, 1-ethyl-3-[6-(2-fluoro-pyridin-3-yl)-8-methyl-isoquinolin-3-yl]-urea] had an MIC of 2 µg/mL (≈ 6.17 µM). For the molecule `CCNC(=O)Nc1cc2cccc(Nc3cc(OC)ccn3)c2cn1.Cl` [Example 160, 1-ethyl-3-[8-(4-methoxy-pyridin-2-ylamino)-isoquinolin-3-yl]-urea hydrochloride], it took 2 µg/mL to inhibit growth (MIC). On to `CCNC(=O)Nc1cc2cccc(Nc3cnccn3)c2cn1` [Example 148, 1-ethyl-3-[8-(pyrazin-2-ylamino)-isoquinolin-3-yl]-urea], for which it took 2 µg/mL (≈ 6.49 µM) to inhibit growth (MIC).

For the molecule `CCNC(=O)Nc1cc2cccc(Nc3nnc(C)o3)c2cn1` [Example 154, 1-ethyl-3-[8-(5-methyl-[1,3,4]oxadiazol-2-ylamino)-isoquinolin-3-yl]-urea], 8 µg/mL (≈ 25.6 µM) was the least that counted as inhibitory (MIC).

`CCNC(=O)Nc1cc2c(-c3ccnc(C)c3)ccc(Nc3cccc(C(=O)NC)c3)c2cn1` [Example 247, 3-[3-(3-ethyl-ureido)-5-(2-methyl-pyridin-4-yl)-isoquinolin-8-ylamino]-N-methyl-benzamide] came in with an MIC of 0.25 µg/mL (≈ 0.55 µM). `CCNC(=O)Nc1cc2cc(-c3ccc4nccn4c3)cc(C)c2cn1` [Example 25, 1-ethyl-3-(6-imidazo[1,2-a]pyridin-6-yl-8-methyl-isoquinolin-3-yl)-urea] came in with an MIC of 0.5 µg/mL (≈ 1.45 µM).

With `CCNC(=O)Nc1cc2cc(NCc3ccc(C(=O)O)cc3)cc(C)c2cn1` [Example 127, 4-{[3-(3-ethyl-ureido)-8-methyl-isoquinolin-6-ylamino]-methyl}-benzoic acid], the lowest concentration to inhibit growth (MIC) was 16 µg/mL (≈ 42.3 µM). In turn, `CCNC(=O)Nc1cc2c(-c3ccc(O)cc3)ccc(Nc3cccnc3)c2cn1` [Example 228, 1-ethyl-3-[5-(4-hydroxy-phenyl)-8-(pyridin-3-ylamino)-isoquinolin-3-yl]-urea] registered a minimal inhibitory concentration (MIC) of 2 µg/mL (≈ 5.01 µM). Still for that read-out and setting: as for `CCNC(=O)Nc1cc2cc(NCc3cccc(OCCO)c3)cc(C)c2cn1.Cl` [Example 129, 1-ethyl-3-{6-[3-(2-hydroxy-ethoxy)-benzylamino]-8-methyl-isoquinolin-3-yl}-urea hydrochloride], the figure is 16 µg/mL; as for `CCNC(=O)Nc1cc2cc(-c3cccc(C(C)=O)c3)cc(C)c2cn1` [Example 29, 1-[6-(3-acetyl-phenyl)-8-methyl-isoquinolin-3-yl]-3-ethyl-urea], 0.5 µg/mL (≈ 1.44 µM).

Take `CCNC(=O)Nc1cc2cc(-c3ccsc3)cc(C)c2cn1` [Example 93, 1-ethyl-3-(8-methyl-6-thiophen-3-yl-isoquinolin-3-yl)-urea]: inhibition of growth (MIC) required 2 µg/mL (≈ 6.42 µM). The molecule `CCNC(=O)Nc1cc2c(-c3ccnc(C)c3)ccc(Nc3cccc(C(=O)O)c3)c2cn1` [Example 246, 3-[3-(3-ethyl-ureido)-5-(2-methyl-pyridin-4-yl)-isoquinolin-8-ylamino]-benzoic acid] registered an MIC of 0.5 µg/mL (≈ 1.13 µM). For `CCNC(=O)Nc1cc2cc(-c3cccnc3Cl)cc(C)c2cn1` [Example 82, 1-[6-(2-chloro-pyridin-3-yl)-8-methyl-isoquinolin-3-yl]-3-ethyl-urea], inhibition of growth (MIC) required 8 µg/mL (≈ 23.5 µM).

Regarding `CCNC(=O)Nc1cc2cccc(CNc3ccc(OC)nc3)c2cn1.Cl` [Example 302, 1-ethyl-3-{8-[(6-methoxy-pyridin-3-ylamino)-methyl]-isoquinolin-3-yl}-urea hydrochloride], the MIC amounted to 8 µg/mL. The same measure, in the same setting: as for `CCNC(=O)Nc1cc2c(-c3ccnc(C)c3)ccc(C)c2cn1` [Example 40, 1-ethyl-3-[8-methyl-5-(2-methyl-pyridin-4-yl)-isoquinolin-3-yl]-urea], the figure is 2 µg/mL (≈ 6.24 µM); as for `CCNC(=O)Nc1cc2c(-c3ccc(CO)cc3)ccc(C)c2cn1` [Example 34, 1-ethyl-3-[5-(4-hydroxymethyl-phenyl)-8-methyl-isoquinolin-3-yl]-urea], 2 µg/mL (≈ 5.96 µM).

`CCNC(=O)Nc1cc2cc(NC(=O)c3ccc(S(C)(=O)=O)cc3)cc(C)c2cn1` [Example 117, N-[3-(3-ethyl-ureido)-8-methyl-isoquinolin-6-yl]-4-methanesulfonyl-benzamide]: the MIC turned out to be 0.25 µg/mL (≈ 0.586 µM). With `CCNC(=O)Nc1cc2cccc(Nc3ccc(OC)c(C(=O)NC)c3)c2cn1` [Example 243, 5-[3-(3-ethyl-ureido)-isoquinolin-8-ylamino]-2-methoxy-N-methyl-benzamide], the MIC was 1 µg/mL (≈ 2.54 µM). Molecule `CCNC(=O)Nc1cc2cc(-c3ccc(C(N)=O)cc3)cc(C)c2cn1` [Example 30, 4-[3-(3-ethyl-ureido)-8-methyl-isoquinolin-6-yl]-benzamide] gave an MIC of 1 µg/mL (≈ 2.87 µM). `CCNC(=O)Nc1cc2cc(NCc3cccc(C(=O)O)c3)cc(C)c2cn1.Cl` [Example 128, 3-{[3-(3-ethyl-ureido)-8-methyl-isoquinolin-6-ylamino]-methyl}-benzoic acid hydrochloride] registered an MIC of 8 µg/mL. The same measure, in the same setting: as for `CCNC(=O)Nc1cc2cc(-c3cccc4cnccc34)cc(C)c2cn1` [Example 104, 1-ethyl-3-(8′-methyl-[5,6′]biisoquinolinyl-3′-yl)-urea], the figure is 8 µg/mL (≈ 22.4 µM); as for `CCNC(=O)Nc1cc2cc(-c3ccncc3)cc(C)c2cn1` [Example 21, 1-ethyl-3-(8-methyl-6-pyridin-4-yl-isoquinolin-3-yl)-urea], 1 µg/mL (≈ 3.26 µM). The same measure, in the same setting: as for `CCNC(=O)Nc1cc2cc(-c3ccc(CO)cc3)cc(C)c2cn1` [Example 15, 1-ethyl-3-[6-(4-hydroxymethyl-phenyl)-8-methyl-isoquinolin-3-yl]-urea], the figure is 0.5 µg/mL (≈ 1.49 µM); as for `CCNC(=O)Nc1cc2cccc(Nc3ccc(NC(C)=O)cc3)c2cn1` [Example 173, N-{4-[3-(3-ethyl-ureido)-isoquinolin-8-ylamino]-phenyl}-acetamide], 2 µg/mL (≈ 5.5 µM).

On to “N-{1-[3-(3-ethyl-ureido)-8-methyl-isoquinolin-6-yl]-phenyl}-acetamide [Example 18]”, for which the “MIC for S. pneumoniae ATCC 49619” value (cation-adjusted Mueller-Hinton Broth supplemented with 3% (v/v) lysed horse blood) worked out at 0.25 µg/mL. As to `CCNC(=O)Nc1cc2cc(-c3ccccc3C(=O)OCC)cc(C)c2cn1` [Example 85, 2-[3-(3-ethyl-ureido)-8-methyl-isoquinolin-6-yl]-benzoic acid ethyl ester], the MIC turned out to be 16 µg/mL (≈ 42.4 µM).
